Six compounds from EP0913150A1, “Combination of actives, viz. salicyl alcohol and fumaric acid and/or maleic acid, for the treatment of seborrheoic skin diseases, especially psoriasis” (Phytexpert, Pharm-Tox-Consulting GmbH, priority 1997, dated 1999) can be followed below.

Converted amounts (≈) assume the structure as drawn. Read-outs that look alike come from different tables or passages of the source.

A short description of series [1]: Cytotoxicity, release of lactate dehydrogenase (LDH). The class given is cell-based, menschlichen. The conditions noted are these: human. The source says:
(§1) Die Zellproliferation der Hautzellen wurde anhand der bekannten Neutralrotmethode untersucht. Die Zellschädigung wurde durch gleichzeitige Untersuchung der Freisetzung eines cytosolischen Enzyms, der Lactatdehydrogenase, zusätzlich bestimmt. In einigen Versuchen wurde auch die DNA-Synthese anhand der Inkorporation von ^3H-Thymidin mituntersucht.

Series [2] concerns menschlichen Keratinozyten (HaCat). Nature of the series: Inhibition of cell proliferation, neutral red (NR) method. The class given is cell-based. Particulars: Homo sapiens, read-out: NR-Methode *IC50.
Description: as §1

For series [3] the test system is unchanged. Nature of the series: DNA synthesis, 3H-thymidine incorporation. The class given is cell-based. Particulars: Homo sapiens; HaCat keratinocytes; influence on DNA synthesis; read-out: ^3H-Thymidin-Einbau.
Description: as §1

Setting [4] is: HaCat keratinocytes, 50% inhibition of cell growth.

The compound `O=C(O)/C=C\C(=O)O` [Maleinsäure] came in with a CC50 in series [1] (hacat keratinocytes) of over 1000 µg/mL. Moreover, the IC50 in series [2] (setting [4]) is 1700 µg/mL (≈ 14.6 mM).
Regarding `OCc1ccccc1O` [Salicylalkohol, 2-Hydroxybenzylalkohol], the IC50 in series [3] is 300 µg/mL (≈ 2.42 mM); in series [2] (setting [4]), 780 µg/mL (≈ 6.28 mM). In addition, the CC50 in series [1] (hacat keratinocytes) is over 600 µg/mL.
With `C[C@@H]1C[C@H]2[C@@H]3CCC4=CC(=O)C=C[C@]4(C)[C@@]3(F)[C@@H](O)C[C@]2(C)[C@@]1(O)C(=O)CO` [Dexamethason], the CC50 in series [1] (hacat keratinocytes) was over 600 µg/mL. The IC50 in series [2] (HaCaT) was determined as 800 µg/mL (≈ 2.04 mM).
As to `O=C(O)c1ccccc1O` [Na-Salicylat, Natriumsalicylat], the CC50 in series [1] (HaCat keratinocytes, measure of cytotoxicity, as concentration of the active substance, read-out: LDH-Freisetzung*) is over 2000 µg/mL. Besides, the IC50 in series [2] (HaCaT) came out at 1500 µg/mL (≈ 10.9 mM).
In series [1] (hacat keratinocytes), `O=C(O)/C=C/C(=O)O` [Na-Fumarat, Natriumfumarat] displayed a CC50 of over 10000 µg/mL. In addition, in series [2] (setting [4]), the IC50 was determined as 4900 µg/mL (≈ 42.2 mM).
The like results for `O=Cc1ccccc1O` [Salicylaldehyd] were, in that order, over 100 µg/mL and 34 µg/mL (≈ 0.278 mM).
